Results as given in patent US20240400698A1, “ANTI-CHEMOKIN LIKE RECEPTOR 1 ANTIBODIES AND THEIR THERAPEUTIC APPLICATIONS” (OSE IMMUNOTHERAPEUTICS, priority 2018, published 2024).

B1: 1G1: anti-CMKLR1 chimeric antibody variant, LL on positions 1 and 2 of VH-CDR3 (SEQ ID No. 8) (antibody, V domains shown)
VH: EVQLVASGGGLVQPGGSLKLSCAASGFTFSSYGMSWVRQTPDRRLELVATINRYGGSTYYPDSVKGRFTISRDNAKNTLYLQMSSLKSEDTAMYYCPRLLYYGNEGDSWGQGTTLTVSS
VL: QIVLTQSPAIMSASPGEKVTMTCSASSSVSFMHWYQQKSGTSPKRWIYDTTKLTSGVPARFSGSGSGTFYSLTISSMEAEDAATYYCQQWNSKPPLTFGPGTKLELKR

Columns and labels:
[1] = system: Mice dendritic cells; experiment: Maturation and differentiation of mice bone marrow derived dendritic cells, activation markers and viability by FACS; type: cell-based
Protocol: FIG. 1. Effect of the anti-CMKLR1 variants 1G1, 2G1, 3G1 and 4G1 chimeric antibodies on the DCs maturation and differentiation. Mice dendritic cells were incubated during maturation phase (24 h or 48 h) followed by a differentiation phase with excipient or RvE1 or anti-CMKLR1 antibodies variants (mutations on positions 1 and 2 of SEQ ID No. 8, corresponding to the VH-CDR3: 1G1 (LL), 2G1 (LI), 3G1 (IL) or 4G1 (II) or isotype controls (hIgG1 or mIgG)). Cells were then stained for FACS analysis with cell marker antibodies: A. CD80-PE; B. CD86-FITC; C. CD103-PerCPCy5.5; D. I/Ab-APC. Mean of Fluorescence was determined in each condition. E and F represent the viability of the cells measured by FACS using LIVE/DEAD® kit from Life Technologies in each condition after 24 or 48 hours of maturation respectively.
FIG. 17. Study of the myeloid cell activation markers after CMKLR1 pathway activation. Dendritic cells incubated in excipient, RvE1, 2G1 or isotype control (hIgG1) were then stained for FACS analysis with marker antibodies: A. CD80-PE. B. CD86-FITC. C. CD103-PerCPCy5.5. D. CD40-PeCy7. E. I/Ab-APC. Mean of Fluorescence was determined in each condition.
Bone marrow cells were harvested and cultured in RPMI medium supplemented with 10% FBS, glutamine and antibiotics and the dendritic cell differentiation was induced by GM-CSF at 20 ng/ml for 7 days. Then, immature dendritic cells (iDC) were collected and cultured for 24 hours with LPS (100 ng/ml) to induce the maturation from iDC to mDC. Treatments were added during differentiation and maturation at 2 μg/ml.
Dendritic cells were resuspended in PBS-FBS-EDTA and incubated with live and dead (LIVE/DEAD® Fixable Dead Cell Stains Yellow-Life Technologies) for 30 minutes on ice. Staining of CD11c-BV711, CD11b-APCCy7, I/Ab-APC, CD103-PerCPCy5.5, CCR7-V450, CD40-PeCy7, CD80-PE, CD86-FITC (all provided by BD Pharmingen) were performed.

[2] = system: C57BI/6 male mice, colitis induced by TNBS; experiment: Acute inflammatory colitis model induced by TNBS; type: in vivo; conditions: FIG. 3, 2G1 10 μg, RvE1 1 μg per mouse i.p.
Protocol: FIG. 3. […] Mice received 200 μL of the haptenating agent TNBS at 5% in 50% ethanol on day 0 and then were injected with isotype control hIgG1 (10 μg per mouse) (x), RvE1 (1 μg per mouse) daily (•), or 2G1 antibody (10 μg per mouse) three times ( ) for 5 days, or non-treated (wild type animals) (▾). Mice were sacrificed colon length was measured in each condition.
Colitis was induced in 8-10 weeks-old-C57BI/6 male mice by intrarectal injection of 200 μL of the haptenating agent TNBS at 5% in 50% ethanol on day 0. Treatments were injected intra-peritoneally; RvE1 (1 μg per mouse) daily for three days, or 2G1 antibody (10 μg per mouse) twice for 3 days. Colitis follow-up consisting of body weight and stool score (0: normal stool; 4: blood in stool) parameters were performed daily (data not represented). When mice are euthanized, colon length representing the pathology severity was measured.

[3] = system: male C57BI/6 mice, Aldara-induced psoriasis; experiment: Imiquimod (Aldara)-induced psoriasis-like skin inflammation; type: in vivo; conditions: 1 μg per mouse i.p. daily, vs control molecule
Protocol: FIG. 6. Effect of Resolvin E1 on an autoimmune disease such as mice psoriasis model. Aldara treated mice for 6 consecutive days were injected intra-peritoneally with: RvE1 (1 μg) (•) and PBS daily, and isotype control antibody (10 μg) (x) at day 0, 2 and 4. A. Ear thicknesses and B. skin thicknesses were measured daily until the recovery.
Aldara@ cream which is known to induce psoriasis in mice was used on male C57BI/6 mice (8-10-week old). Mice received a daily topical dose of Aldara on the shaved back and the left ear for 6 consecutive days. Treatments were injected intra-peritoneally: RvE1 (1 μg per mouse) and PBS daily. Ear (FIG. 6A) and back (FIG. 6B) thicknesses were measured daily until the recovery.

[4] = system: mice, peritonitis induced by Zymosan A; experiment: Zymosan A peritonitis model (sepsis); type: in vivo; conditions: preventive injection, vs isotype control
Protocol: FIG. 7. […] Preventive injection of anti-CMKLR1 was performed before Zymosan A injection (1 mg per mouse in 1 mL): RvE1 (1 μg per mouse) (•), 2G1 antibody (10 μg per mouse) ( ) or isotype control antibody (x). A. PMN numbered during the first 50 hours after Zymosan A injection. B. Macrophages numbered during the first 50 hours after Zymosan A injection. C. Resolution index.
Common peritonitis is induced by intraperitoneal injection of Zymosan A® (1 mg per mouse in 1 mL). Preventive injection of anti-CMKLR1 was performed 5 minutes before Zymosan A injection: RvE1 (1 μg per mouse), 2G1 antibody (10 μg per mouse). Murine peritoneal polymorphonuclear neutrophil (PMN) and macrophages were collected at 2-4-8-16-24 and 48 h after Zymosan A injection and numbered by flow cytometry analysis to determinate the resolution index (Bannenberg et al., 2005).

[5] = system: mice M1 or M2 macrophages; experiment: Cytokine secretion by mice M1 or M2 macrophages (ELISA), FIG. 15; type: cell-based; conditions: FIG. 15; IL10, CCL17, IL12p40
Protocol: FIG. 15. Study of the inflammatory cytokine secretion by human macrophages during CMKLR1 activation. After differentiation of human macrophages M1 or M2, cells were incubated in presence of medium, isotype control, anti-CMKLR1 antibodies (H6 and BZ194), C15 peptides, 2G1 anti-CMKLR1 antibody or RvE1. Secretion of IL10, CCL17 and IL12p40 were assessed by ELISA. Cytokines secretion is measured in the supernatant by using an ELISA kit from BD. Supernatant were diluted at 1/10 for IL10 cytokines, 1/50 for CCL17 cytokines and 1/100 for IL12p40 cytokines. A. IL10 cytokine secretion by M2 cells. B. CCL17 cytokine secretion by M2 cells. C. represents IL 12 cytokine secretion by M1 cells.
Bone marrow cells were harvested and cultured in the RPMI medium supplemented with 10% FBS, glutamine and antibiotics containing macrophages colony-stimulating factor (M-CSF) at 100 ng/ml for 5 days inducing the macrophages differentiation. The macrophages were harvested and cultured for 2 days with either IFNg (20 ng/ml) and LPS (100 ng/ml) inducing the M1 polarization or with IL-4 (20 ng/ml) inducing the M2 polarization. Treatments were added during macrophage polarization at 2 μg/ml.
After differentiation of mice M1 or M2 as explain above, cells were incubated in presence of medium, isotype control, anti-CMKLR1 antibodies: clones H6 and BZ194, C15 peptides, 2G1 the anti-CMKLR1 antibody of interest or RvE1 were used. Then the secretion of IL10, CCL17 and IL12p40 was assessed by ELISA. Cytokines secretion was measured in the supernatant using an ELISA kit from BD. Supernatants were diluted at 1/10 for IL10 cytokines, 1/50 for CCL17 cytokines and 1/100 for IL12p40 cytokines.
Cytokines secretion was detected by ELISA according to the BD manufacturer instructions. Briefly, supernatants were diluted in the appropriate buffer and incubated for 2 hours after overnight coating with capture antibody and saturation. […] TMB supplied by BD Bioscience was used as substrate and colorimetric reaction was read with TECAN.

Molecule | expression of CD80, CD86, CD103, CD40 and IAb (DC activation markers) ([1]; FIG. 17, FACS, compared to the excipient or isotype control) | colon length [2] | thickness of the ears ([3]; FIG. 6A) | thickness of the skin (back) ([3]; FIG. 6B) | PMNs number ([4]; FIG. 7A) | macrophages number ([4]; FIG. 7B) | resolution index ([4]; FIG. 7C) | inflammatory cytokines secreted by M1 or M2 macrophages, result compared with that of 2G1 [5] | DCs activation and/or maturation towards a pro-inflammatory pathway ([1]; FIG. 1, mice dendritic cells, maturation 24 h or 48 h) | viability of cells ([1]; FIGS. 1E and 1F, LIVE/DEAD kit, after 24 or 48 hours of maturation, compared with other antibodies, C7 or Resolvin E1)
CC[C@@H](O)/C=C/C=C\C[C@@H](O)/C=C/C=C/C=C\[C@@H](O)CCCC(=O)O [RvE1, Resolvin E1, reference compound] | strong decrease | the same as normal animal (wt) | lower thickness | lower thickness | slightly less | slightly less | better resolution index | different | – | –
B1 | – | – | – | – | – | – | – | – | inhibit DCs activation and/or maturation in a stronger manner than other synthetized antibodies (3G1 and 4G1) | enhanced
